Common to all, as to format: biochemical
Experiment [1] addresses T1, ADAM10 (Homo sapiens, UniProt O14672).
T1 construct: purchased AnaSpec, Inc. AS-72226
T1 sequence (O14672 214-748): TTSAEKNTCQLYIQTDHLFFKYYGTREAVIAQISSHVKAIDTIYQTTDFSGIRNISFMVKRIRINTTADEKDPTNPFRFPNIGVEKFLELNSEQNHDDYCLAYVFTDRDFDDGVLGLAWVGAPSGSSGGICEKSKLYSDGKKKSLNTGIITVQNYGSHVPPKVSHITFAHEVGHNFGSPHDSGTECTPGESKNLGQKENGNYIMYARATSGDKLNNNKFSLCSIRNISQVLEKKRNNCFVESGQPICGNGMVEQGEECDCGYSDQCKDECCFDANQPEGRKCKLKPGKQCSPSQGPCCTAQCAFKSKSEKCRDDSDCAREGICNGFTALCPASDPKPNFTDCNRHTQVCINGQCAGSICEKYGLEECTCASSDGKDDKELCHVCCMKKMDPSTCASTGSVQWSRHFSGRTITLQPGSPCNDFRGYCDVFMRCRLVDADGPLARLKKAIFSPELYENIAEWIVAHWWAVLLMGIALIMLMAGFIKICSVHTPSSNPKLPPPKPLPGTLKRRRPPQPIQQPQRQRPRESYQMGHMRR
The experiment in a line: SensoLyte 520 ADAM10 fluorometric activity assay (AnaSpec AS-72226). The note with it: FRET peptide substrate, ex/em 495/520 nm; read-out: ADAM 10 IC50 class. The procedure, abridged:
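ADAM10 activity was read by cleavage of a FRET peptide substrate (5-FAM/QXL 520), run per the kit protocol, with fluorescence at 495/520 nm. IC50 values (nM) came from inhibition curves of normalized data.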

The target of experiment [2] is T2, MMP13 (Homo sapiens, UniProt P45452).
T2 construct: purchased Enzo Life Sciences, Inc. BML-AK412
Description: MMP-13 colorimetric inhibition assay (Enzo kit BML-AK412). The conditions noted are these: thiopeptide substrate, absorbance 415 nm; read-out: MMP 13 IC50 class. The procedure, abridged:
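Thiopeptide chromogenic substrate (Ac-PLG-[2-mercapto-4-methylpentanoyl]-LG-OC2H5); MMP-13 hydrolysis of the thioester yields a thiol that reacts with DTNB, read at 415 nm. IC50 values (nM) derived from inhibition curves of normalized data.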

Experiment [3] concerns the target T3, MMP1 (Homo sapiens, UniProt P03956).
T3 sequence (P03956 100-269 limits assumed): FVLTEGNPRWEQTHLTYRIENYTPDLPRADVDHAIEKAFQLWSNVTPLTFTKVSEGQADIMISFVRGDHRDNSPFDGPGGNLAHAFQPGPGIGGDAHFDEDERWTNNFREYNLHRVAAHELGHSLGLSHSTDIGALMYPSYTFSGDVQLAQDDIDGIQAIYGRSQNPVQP
Description: MMP-1 colorimetric inhibition assay (Enzo kit BML-AK404). The note with it: thiopeptide substrate, absorbance 415 nm; read-out: MMP 1 IC50 class. The procedure, abridged: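 Colorimetric kit run per manufacturer protocol. MMP-1 cleaves a thiopeptide substrate (Ac-PLG-[2-mercapto-4-methylpentanoyl]-LG-OC2H5); released thiol reacts with DTNB, monitored at 415 nm. IC50 (nM) from inhibition curves of normalized values.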

In experiment [4] the target is T4, MMP2 (Homo sapiens, UniProt P08253).
T4 sequence (P08253 110-660): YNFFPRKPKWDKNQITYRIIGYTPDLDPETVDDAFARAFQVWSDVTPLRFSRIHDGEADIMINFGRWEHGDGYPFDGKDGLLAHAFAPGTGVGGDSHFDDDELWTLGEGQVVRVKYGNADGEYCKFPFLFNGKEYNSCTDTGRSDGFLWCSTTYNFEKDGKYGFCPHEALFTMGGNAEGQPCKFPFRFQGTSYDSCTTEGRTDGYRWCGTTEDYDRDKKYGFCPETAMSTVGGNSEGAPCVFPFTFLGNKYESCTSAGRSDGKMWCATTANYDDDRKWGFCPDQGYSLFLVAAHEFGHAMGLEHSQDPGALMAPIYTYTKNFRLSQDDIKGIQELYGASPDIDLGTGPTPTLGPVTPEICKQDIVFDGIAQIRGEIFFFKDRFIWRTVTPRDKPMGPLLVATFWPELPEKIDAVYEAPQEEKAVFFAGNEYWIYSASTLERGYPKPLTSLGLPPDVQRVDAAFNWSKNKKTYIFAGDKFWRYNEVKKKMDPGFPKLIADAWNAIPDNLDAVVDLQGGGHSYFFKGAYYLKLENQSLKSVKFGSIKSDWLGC
The experiment in a line: MMP-2 colorimetric inhibition assay (Enzo kit BML-AK408). The note with it: thiopeptide substrate, absorbance 415 nm; read-out: MMP 2 IC50 class. The procedure, abridged:
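Cleavage of the thiopeptide Ac-PLG-[2-mercapto-4-methylpentanoyl]-LG-OC2H5 releases a sulfhydryl that reacts with DTNB, read at 415 nm per the kit protocol. IC50 values (nM) come from inhibition curves of normalized data.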

Experiment [5] addresses ADAM17 (TACE) (Homo sapiens, UniProt P78536). Description: TACE fluorometric inhibition assay (Enzo kit BML-AK310). The note with it: quenched fluorogenic peptide, ex/em 320/420 nm; read-out: TACE IC50 class. The procedure, abridged: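 Kit-based TACE assay run per manufacturer's protocol, using quenched fluorogenic peptide Mca-PLAQAV-Dpa-RSSSR-NH2 whose cleavage raises Mca fluorescence. Signal read at ex/em 320/420 nm; IC50 (nM) derived from inhibition curves of normalized values.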

The target of experiment [6] is MMP9 (Homo sapiens, UniProt P14780). Description: MMP-9 colorimetric inhibition assay (Enzo kit BML-AK410). The note with it: thiopeptide substrate, absorbance 415 nm; read-out: MMP 9 IC50 class. The procedure, abridged: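 Colorimetric thioester-substrate assay: hydrolysis of Ac-PLG-[2-mercapto-4-methylpentanoyl]-LG-OC2H5 frees a thiol that reacts with DTNB, read at 415 nm. Run per kit protocol. IC50 (nM) taken from inhibition curves of normalized values.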
MMP9, sequence (P14780 94-707): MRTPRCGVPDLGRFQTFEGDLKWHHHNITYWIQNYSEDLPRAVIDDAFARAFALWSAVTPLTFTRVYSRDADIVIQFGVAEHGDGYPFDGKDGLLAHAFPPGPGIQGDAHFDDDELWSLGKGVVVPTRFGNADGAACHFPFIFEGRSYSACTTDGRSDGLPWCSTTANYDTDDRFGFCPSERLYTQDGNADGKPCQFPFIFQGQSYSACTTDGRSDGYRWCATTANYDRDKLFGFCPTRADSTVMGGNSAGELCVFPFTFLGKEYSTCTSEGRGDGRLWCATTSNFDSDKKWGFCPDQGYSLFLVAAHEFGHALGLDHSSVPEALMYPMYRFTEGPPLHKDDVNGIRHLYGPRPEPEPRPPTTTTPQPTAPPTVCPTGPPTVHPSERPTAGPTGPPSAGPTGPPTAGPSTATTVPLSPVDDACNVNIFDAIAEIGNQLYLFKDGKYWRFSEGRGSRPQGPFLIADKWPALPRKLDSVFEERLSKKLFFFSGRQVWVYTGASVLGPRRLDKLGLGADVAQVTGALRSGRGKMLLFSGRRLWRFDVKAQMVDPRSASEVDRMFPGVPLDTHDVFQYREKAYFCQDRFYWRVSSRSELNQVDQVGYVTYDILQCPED

ADAM17 (TACE), sequence (P78536 215-477 limits assumed): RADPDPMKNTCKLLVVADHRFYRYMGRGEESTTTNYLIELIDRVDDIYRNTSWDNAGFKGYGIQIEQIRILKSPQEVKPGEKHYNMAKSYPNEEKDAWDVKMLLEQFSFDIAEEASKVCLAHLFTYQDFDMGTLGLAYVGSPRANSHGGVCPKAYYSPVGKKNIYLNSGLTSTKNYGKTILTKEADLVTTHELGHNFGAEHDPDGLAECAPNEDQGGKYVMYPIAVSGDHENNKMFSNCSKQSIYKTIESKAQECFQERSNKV

Take `COc1ccc(Oc2ccc(S(=O)(=O)N3C[C@H]4CC[C@@H]([C@@H]3C(=O)NO)N4C(=O)N3CCOCC3)cn2)cc1F` [Example 73, (1S,2R,5R)-3-((6-(3-fluoro-4-methoxy-phenoxy)pyridin-3-yl)-sulfonyl)-N-hydroxy-8-(morpholine-4-carbonyl)-3,8-diazabicyclo[3.2.1]-octane-2-carboxamide]: the IC50 in experiment [1] was 1000 to 10000 nM; in experiment [2] it was less than 50 nM; in experiment [3] it was more than 10000 nM; in experiment [4], less than 50 nM; in experiment [5], 1000 to 10000 nM; in experiment [6] it was less than 50 nM.
`COCCOC(=O)N1[C@@H]2CC[C@H]1[C@H](C(=O)NO)N(S(=O)(=O)c1ccc(Oc3ccc(OCC(F)(F)F)cc3)nc1)C2` [Example 25, 2-methoxyethyl (1S,2R,5R)-2-(hydroxycarbamoyl)-3-((6-(4-(2,2,2-trifluoroethoxy)-phenoxy)pyridin-3-yl)sulfonyl)-3,8-diazabicyclo[3.2.1]-octane-8-carboxylate]: the half-inhibitory concentration (IC50) in experiment [1] was more than 10000 nM; in experiment [2], less than 50 nM; in experiment [3], 1000 to 10000 nM; in experiment [4] it was less than 50 nM; in experiment [5] it was more than 10000 nM; in experiment [6], less than 50 nM.
On to `CC(C)(C)C(=O)N1[C@@H]2CC[C@H]1[C@H](C(=O)NO)N(S(=O)(=O)c1ccc(Oc3ccc(OC(F)(F)F)cc3)nc1)C2` [Example 57, (1S,2R,5R)-N-hydroxy-8-pivaloyl-3-((6-(4-(trifluoro-methoxy)phenoxy)-pyridin-3-yl)-sulfonyl)-3,8-diazabicyclo-[3.2.1]octane-2-carboxamide], for which the IC50 was more than 10000 nM in experiment [1]; less than 50 nM in experiment [2]; 1000 to 10000 nM in experiment [3]; less than 50 nM in experiment [4]; 1000 to 10000 nM in experiment [5]; less than 50 nM in experiment [6].
Turning to `COCCOC(=O)N1[C@@H]2CC[C@H]1[C@H](C(=O)NO)N(S(=O)(=O)c1ccc(Oc3ccc(Cl)cc3F)nc1)C2` [Example 20, 2-methoxyethyl (1S,2R,5R)-3-((6-(4-chloro-2-fluoro-phenoxy)pyridin-3-yl)sulfonyl)-2-(hydroxycarbamoyl)-3,8-diazabicyclo[3.2.1]-octane-8-carboxylate], the half-maximal inhibitory concentration (IC50) in experiment [1] is 1000 to 10000 nM; in experiment [2] it was less than 50 nM; in experiment [3], 50 to 1000 nM; in experiment [4] it was less than 50 nM; in experiment [5], 50 to 1000 nM; in experiment [6], less than 50 nM.
In the case of `O=C(NO)[C@H]1[C@@H]2CC[C@H](CN1S(=O)(=O)c1ccc(Oc3ccc(OC(F)(F)F)cc3)nc1)N2C(=O)N1CCOCC1` [Example 70, (1S,2R,5R)-N-hydroxy-8-(morpholine-4-carbonyl)-3-((6-(4-(trifluoromethoxy)-phenoxy)pyridin-3-yl)sulfonyl)-3,8-diazabicyclo[3.2.1]-octane-2-carboxamide], the half-inhibitory concentration (IC50) in experiment [1] is more than 10000 nM; in experiment [2], less than 50 nM; in experiment [3], more than 10000 nM; in experiment [4] it was less than 50 nM; in experiment [5], 1000 to 10000 nM; in experiment [6], less than 50 nM.
As to `COCCOC(=O)N1[C@@H]2CC[C@H]1[C@H](C(=O)NO)N(S(=O)(=O)c1ccc(Oc3ccc(OC(F)F)cc3)nc1)C2` [Example 24, 2-methoxyethyl (1S,2R,5R)-3-((6-(4-(difluoromethoxy)phenoxy)pyridin-3-yl)sulfonyl)-2-(hydroxycarbamoyl)-3,8-diazabicyclo[3.2.1]octane-8-carboxylate], the IC50 is 1000 to 10000 nM in experiment [1]; less than 50 nM in experiment [2]; 1000 to 10000 nM in experiment [3]; less than 50 nM in experiment [4]; 50 to 1000 nM in experiment [5]; less than 50 nM in experiment [6].
As for `CCc1ccc(Oc2ccc(S(=O)(=O)N3C[C@H]4CC[C@@H]([C@@H]3C(=O)NO)N4C(=O)OCCOC)cn2)cc1` [Example 33, 2-methoxyethyl (1S,2R,5R)-3-((6-(4-ethylphenoxy)pyridin-3-yl)sulfonyl)-2-(hydroxycarbamoyl)-3,8-diazabicyclo-[3.2.1]octane-8-carboxylate], the IC50 in experiment [1] is more than 10000 nM; in experiment [2], less than 50 nM; in experiment [3], 1000 to 10000 nM; in experiment [4] it was less than 50 nM; in experiment [5], 1000 to 10000 nM; in experiment [6], less than 50 nM.
With `CCOC(=O)N1[C@@H]2CC[C@H]1[C@H](C(=O)NO)N(S(=O)(=O)c1ccc(Oc3ccc(F)cc3)nc1)C2` [Example 65, ethyl (1S,2R,5R)-3-((6-(4-fluorophenoxy)pyridin-3-yl)sulfonyl)-2-(hydroxycarbamoyl)-3,8-diazabicyclo[3.2.1]octane-8-carboxylate], the half-inhibitory concentration (IC50) in experiment [1] was more than 10000 nM; in experiment [2], less than 50 nM; in experiment [3], 50 to 1000 nM; in experiment [4] it was less than 50 nM; in experiment [5] it was 1000 to 10000 nM; in experiment [6], less than 50 nM.
As to `CCC(=O)N1[C@@H]2CC[C@H]1[C@H](C(=O)NO)N(S(=O)(=O)c1ccc(Oc3ccc(OC(C)C)cc3)nc1)C2` [Example 59, (1S,2R,5R)-N-hydroxy-3-((6-(4-isopropoxyphenoxy)pyridin-3-yl)-sulfonyl)-8-propionyl-3,8-diaza-bicyclo[3.2.1]octane-2-carboxamide], the IC50 in experiment [1] was more than 10000 nM; in experiment [2], less than 50 nM; in experiment [3], 1000 to 10000 nM; in experiment [4] it was less than 50 nM; in experiment [5], more than 10000 nM; in experiment [6], less than 50 nM.
With `COCCOC(=O)N1[C@@H]2CC[C@H]1[C@H](C(=O)NO)N(S(=O)(=O)c1ccc(Oc3ccc(OC(C)(C)C)cc3)nc1)C2` [Example 31, 2-methoxyethyl (1S,2R,5R)-3-((6-(4-(tert-butoxy)-phenoxy)pyridin-3-yl)sulfonyl)-2-(hydroxycarbamoyl)-3,8-diazabicyclo-[3.2.1]octane-8-carboxylate], the IC50 in experiment [1] is more than 10000 nM; in experiment [2], less than 50 nM; in experiment [3], more than 10000 nM; in experiment [4], less than 50 nM; in experiment [5], more than 10000 nM; in experiment [6], less than 50 nM.
As for `COCCOC(=O)N1[C@@H]2CC[C@H]1[C@H](C(=O)NO)N(S(=O)(=O)c1ccc(Oc3cnn(C)c3)nc1)C2` [Example 36, 2-methoxyethyl (1S,2R,5R)-2-(hydroxycarbamoyl)-3-((6-((1-methyl-1H-pyrazol-4-yl)oxy)-pyridin-3-yl)-sulfonyl)-3,8-diazabicyclo[3.2.1]-octane-8-carboxylate], the IC50 in experiment [1] was 1000 to 10000 nM; in experiment [2], less than 50 nM; in experiment [3], less than 50 nM; in experiment [4], less than 50 nM; in experiment [5] it was 50 to 1000 nM; in experiment [6] it was less than 50 nM.

Values taken from patent US20250215010A1, “DIAZABICYCLOOCTANE DERIVATIVES USEFUL AS MATRIX METALLOPROTEINASE INHIBITORS” (VASA THERAPEUTICS SPOLKA Z OGRANICZONA ODPOWIEDZIALNOSCIA, priority 2022, published 2025).
